In PMC7176092, “Development of the first in vivo GPR17 ligand through an iterative drug discovery pipeline: A novel disease-modifying strategy for multiple sclerosis” (PLoS ONE, 2020):
“And” between values parts separate entries of the source, which are not always exact repeats. Equal entries are not always repeated. Where two headings read alike, the source gives them in different places.

Assays:
human GPR17 = target: T1, human GPR17 (Homo sapiens, UniProt Q13304); test: [35S]GTPγS binding assay; type: biochemical
T1 construct: HA; expressed in transfected cells
Experimental: [^35S]GTPγS binding assays were carried out as previously described. Briefly, control and astrocytoma 1321N1 cells stably transfected with human pcDNA3.1 (control cells) and human HA-tag GPR17 were homogenized in 5 mM Tris/HCl and 2 mM EDTA (pH 7.4) and centrifuged at 48,000g for 15 min at 4°C. The resulting pellets were washed in 50 mM Tris/HCl and 10 mM MgCl2 (pH 7.4). After protein dosage, aliquots of cell membranes were incubated with increasing concentrations of each investigated ligand (1 pM–10 μM) and GTPγS binding to activated G-proteins was quantified as previously described. Compounds were purchased from two external providers, i.e., Ambinter (Ambinter c/o Greenpharma, Orléans, France http://www.ambinter.com/) and Asinex (http://www.asinex.com/).
For analysis and graphic presentation of [^35S]GTPγS binding data, a nonlinear multipurpose curve fitting computer program (Graph-Pad Prism) was used. All data are presented as the mean ± SEM of three different experiments.
The selected 15 molecules were evaluated in our in-house [^35S]GTPγS functional assay in membranes from cells transfected with human GPR17. […] Moreover, this assay has been already successfully used in the past to measure the ability of both endogenous and novel synthetic compounds to activate GPR17 [25, 31]. All tested molecules were able to potently activate GPR17 with nanomolar/sub-nanomolar affinities. Concentration-response curves obtained for each selected compound are reported in S4 Fig.

[1] = In vivo mouse DMPK study, single 1 mg/kg subcutaneous dose
Experimental: In vivo DMPK studies were performed as an external service by Aptuit (Verona, Italy) according to standard procedures.
Two compounds were tested in a single dose pharmacokinetic (PK) study in mouse, in which a 1 mg/kg single dose solution (15% Ethanol, 85% PEG400) was administered by subcutaneous injection to naïve CD1 male mice from accredited supplier (n = 3), weighed prior to dosing. Blood samples were collected for 8 time-points (0.25, 0.50, 1, 2, 4, 6, 8, 24 hours).
Plasma samples were prepared and diluted according standard in-house procedures and stored at approximately -20°C, pending analysis. Briefly, blood samples were collected into tubes containing anticoagulant (K3EDTA), stored on ice and centrifuged to prepare plasma within 2 hours of collection. Plasma samples were diluted in Hepes Buffer and deproteinised using CH3CN containing rolipram as internal reference compound for positive ion mode, according standard procedure (20 ng/ml). After vortexing and centrifugation (3000 rpm per 10 min), sample supernatants were transferred in 96 well plate and diluted with water for analysis.
Blood concentrations of the tested compounds and their metabolites were detected through Liquid Chromatography-tandem Mass Spectrometry (QTRAP® 4000 LC-MS/MS System, Sciex). The results for each test compound in plasma were subjected to non-compartmental PK analysis using WinNonlin Phoenix v.6.3 for generation of appropriate PK parameters, reported along with graphical representation of the mean plasma concentration profiles over time.
At 24 hours, animals were sacrificed, and brains were collected and processed for measuring compound concentrations through mass spectrometry.

OPC-DRG co-cultures = test: In vitro myelination assay; type: cell-based, rat OPCs, mouse DRG; settings: 10 nM; CTRL 100%; mean ± S.E.M.
Experimental: OPC-DRG co-cultures were prepared according to a previously described protocol.
DRG explants from E14.5 mice were directly put in culture after being plucked off from embryo spinal cords. Then, they were grown in Neurobasal medium (Life Technologies) in presence of 100 ng/ml nerve growth factor (NGF, Sigma-Aldrich), and in presence of 10 μM fluorodeoxyuridine (FUDR, Sigma-Aldrich) in order to remove all non-neuronal cells.
Purified primary rat OPCs were obtained from mixed glial cultures by orbital shaking for 3 hours. […]
At day 15, OPC/DRG co-cultures treated with either the selected compounds or the vehicle were fixed and treated with rat anti-MBP (Millipore), mouse anti-SMI 31 and mouse anti-SMI 32 (Cell Signaling), followed by the secondary goat anti-rat/-mouse antibody, conjugated to Alexa Fluor 555 or Alexa Fluor 488 (Life Technologies). The quantification of myelin segments was performed following a previously described protocol with ZEISS LSM Image Browser by acquiring 6 random fields of 4–5 coverslips for each experimental condition. […] The amount of myelin per axon (myelination index) was calculated as the ratio between the white pixels area and the green pixels area. […]

[2] = mouse, sc, plasma, 1 mg/kg s.c. single dose, CD1 male mice

T1 sequence (Q13304 29-367): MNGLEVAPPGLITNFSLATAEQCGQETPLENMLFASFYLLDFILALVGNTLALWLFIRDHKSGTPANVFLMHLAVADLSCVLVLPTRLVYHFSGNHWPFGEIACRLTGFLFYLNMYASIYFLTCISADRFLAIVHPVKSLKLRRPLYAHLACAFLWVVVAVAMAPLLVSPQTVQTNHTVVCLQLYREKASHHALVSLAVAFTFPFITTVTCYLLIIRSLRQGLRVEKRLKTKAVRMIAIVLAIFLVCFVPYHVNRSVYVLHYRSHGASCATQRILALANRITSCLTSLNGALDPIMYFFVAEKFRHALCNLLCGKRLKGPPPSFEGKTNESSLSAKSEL

EC50 (human GPR17; membranes of 1321N1 cells transfected with human GPR17, mean ± SEM of 3 experiments): 1.68 ± 0.1 nM
% Emax (ratio vs Emax of the standard) (human GPR17; standard LTC4 50 nM set to 100% (¶ compounds)): 104.6%
Emax (% vs basal) (human GPR17; vs basal, mean ± SEM): 147.5 ± 5.8%
Plasma concentration, individual mice ([1]; 0.50 h, 1 mg/kg s.c., 1 mg/kg): 29.4 ng/mL and 23.0 ng/mL
Plasma concentration, individual mice ([1]; 1.00 h, 1 mg/kg s.c., 1 mg/kg): 25.5 ng/mL and 30.8 ng/mL
Plasma concentration, individual mice ([1]; 2.00 h, 1 mg/kg s.c., 1 mg/kg): 6.2 ng/mL and 13.0 ng/mL and 13.3 ng/mL
Plasma concentration, individual mice ([1]; 4.00 h, 1 mg/kg s.c., 1 mg/kg): 0.7 ng/mL and 2.5 ng/mL and 1.5 ng/mL
concentration at 0.5 h ([1]; male, CD1, mouse, plasma, sc, 1 mg/kg, 0.50 h, 1 mg/kg s.c., n=3 mice, read-out: Plasma concentration, Mean): 23.3 ng/mL
concentration at 0.5 h ([1]; male, CD1, mouse, plasma, sc, 1 mg/kg, 0.50 h, 1 mg/kg s.c., read-out: Plasma concentration, individual mice): 17.4 ng/mL
concentration at 1 h ([1]; male, CD1, mouse, plasma, sc, 1 mg/kg, 1.00 h, 1 mg/kg s.c., n=3 mice, read-out: Plasma concentration, Mean): 25.7 ng/mL
concentration at 1 h ([1]; male, CD1, mouse, plasma, sc, 1 mg/kg, 1.00 h, 1 mg/kg s.c., read-out: Plasma concentration, individual mice): 20.7 ng/mL
concentration at 2 h ([1]; male, CD1, mouse, plasma, sc, 1 mg/kg, 2.00 h, 1 mg/kg s.c., n=3 mice): 10.8 ng/mL
concentration at 4 h ([1]; male, CD1, mouse, plasma, sc, 1 mg/kg, 4.00 h, 1 mg/kg s.c., read-out: Plasma concentration, Mean): 1.6 ng/mL
concentration at 6 h ([1]; male, CD1, mouse, plasma, sc, 1 mg/kg, 6.00 h, 1 mg/kg s.c., read-out: Plasma concentration, individual mice): 0.8 ng/mL
concentration at 4 h ([1]; male, CD1, mouse, plasma, sc, 1 mg/kg, plasma, 1 mg/kg s.c. single dose, CD1 male mice, read-out: Clast): 1 ng/mL
AUC(0-t) [1, 2]: 46.7 ng·h/mL
Cmax [1, 2]: 26.4 ng/mL
Tmax [1, 2]: 60 min
half-life [1, 2]: 45.5 min
Metabolites found in vivo ([1]; plasma after s.c. administration in mice): 5
Tlast ([1]; plasma, 1 mg/kg s.c. single dose, CD1 male mice): 4.00 h
SMILES: Cc1cccc(NC(=O)CN2C(=O)CC(c3ccccc3)=Nc3ccccc32)c1C [Compound 18]
Myelination Index (OPC-DRG co-cultures): 144.7 ± 14.28%
